Results as given in US20210179600A1, “OXAZOLE AND THIAZOLE DERIVATIVES AS INHIBITORS OF ASK1” (Hepagene Therapeutics (HK) Limited, priority 2017, published 2021).

target: T1, Recombinant human ASK1 kinase (Homo sapiens, UniProt Q99683); experiment: ASK1 kinase HTRF assay (KinEASE-STK); assay type: biochemical; details: HTRF detection; 3 nM ASK1 kinase, 1 uM STK-substrate-biotin
T1 construct: purchased Invitrogen Inc
T1 sequence (Q99683 1-1374): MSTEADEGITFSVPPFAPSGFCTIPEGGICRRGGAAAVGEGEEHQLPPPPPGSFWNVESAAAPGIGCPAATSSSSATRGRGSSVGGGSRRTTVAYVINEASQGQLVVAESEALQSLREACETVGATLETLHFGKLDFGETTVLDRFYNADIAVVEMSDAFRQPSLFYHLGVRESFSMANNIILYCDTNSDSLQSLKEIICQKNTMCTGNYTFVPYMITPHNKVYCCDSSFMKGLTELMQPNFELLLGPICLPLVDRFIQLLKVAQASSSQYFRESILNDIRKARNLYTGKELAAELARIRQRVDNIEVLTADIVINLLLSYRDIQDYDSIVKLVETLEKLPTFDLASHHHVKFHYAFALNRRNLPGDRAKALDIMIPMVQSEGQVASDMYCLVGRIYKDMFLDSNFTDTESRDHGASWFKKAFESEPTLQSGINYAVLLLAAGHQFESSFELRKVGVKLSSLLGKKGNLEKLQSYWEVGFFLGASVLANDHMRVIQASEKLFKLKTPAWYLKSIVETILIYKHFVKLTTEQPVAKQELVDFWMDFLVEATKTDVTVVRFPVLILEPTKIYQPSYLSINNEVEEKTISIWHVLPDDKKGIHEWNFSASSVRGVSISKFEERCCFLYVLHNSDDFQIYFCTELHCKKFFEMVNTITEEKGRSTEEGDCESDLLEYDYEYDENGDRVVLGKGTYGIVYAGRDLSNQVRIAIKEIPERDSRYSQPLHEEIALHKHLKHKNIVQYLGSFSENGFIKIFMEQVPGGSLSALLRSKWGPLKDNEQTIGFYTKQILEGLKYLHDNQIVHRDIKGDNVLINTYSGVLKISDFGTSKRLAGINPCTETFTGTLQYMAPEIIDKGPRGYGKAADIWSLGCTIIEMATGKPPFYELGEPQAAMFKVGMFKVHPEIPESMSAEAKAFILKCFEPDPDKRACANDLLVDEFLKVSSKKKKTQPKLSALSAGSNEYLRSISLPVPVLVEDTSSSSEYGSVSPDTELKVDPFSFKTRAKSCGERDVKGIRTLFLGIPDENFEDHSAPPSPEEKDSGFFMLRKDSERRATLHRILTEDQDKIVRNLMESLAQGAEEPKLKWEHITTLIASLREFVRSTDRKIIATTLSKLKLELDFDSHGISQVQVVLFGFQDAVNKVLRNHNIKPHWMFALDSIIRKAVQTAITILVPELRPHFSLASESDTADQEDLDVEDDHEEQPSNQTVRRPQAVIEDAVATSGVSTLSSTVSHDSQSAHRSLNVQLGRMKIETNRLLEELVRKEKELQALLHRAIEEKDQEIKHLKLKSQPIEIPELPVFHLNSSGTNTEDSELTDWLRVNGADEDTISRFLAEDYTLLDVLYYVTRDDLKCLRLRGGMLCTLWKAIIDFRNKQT
Protocol: Reagents: Recombinant human ASK1 kinase was from Invitrogen Inc. HTRF KinEASE™-STK S3 kit was obtained from Cisbio (Bedford, Mass.). All other reagents were of the highest grade commercially available.
Assay: The assay measures the phosphorylation level of a biotinylatd peptide substrate by the ASK1 kinase using HTRF detection. ASK1 kinase assay is based on HTRF KinEASE™-STK manual from Cisbio. Test compound, 1 uM STK-substrate-biotin, 3 nM of ASK1 kinase are incubated with 1*Kinase buffer with 5 mM MgCl2 and 1 mM DTT. 250 nM Sa-XL 665(4*) and STK-antibody-Cryptate work solution are added to stop the reaction and phosphorylated peptide substrate is detected using Envision 2104 Multilabeled reader from PerkinElmer. The fluorescence is measured at 615 nm (Cryptate) and 665 nm (XL665) and a ratio of 665 nm/615 nm is calculated for each well. The resulting TR-FRET level (a ratio of 665 nm/615 nm) is proportional to the phosphorylation level of substrate.

Row | SMILES | EC50 [nM]
1 | C[C@H](CO)n1cnnc1-c1cccc(-c2ncc(-c3cccc(N(C)C)c3)o2)n1 [Compound I-059] | ≤ 50
2 | CC(C)n1cnnc1-c1cccc(-c2ncc(-c3cccc(N4CCN(CCO)CC4)c3)o2)n1 [Compound I-012, 2-(4-(3-(2-(6-(4-Isopropyl-4H-1,2,4-triazol-3-yl)pyridin-2-yl)oxazol-5-yl)phenyl)piperazin-1-yl)ethanol] | ≤ 50
3 | CC(C)n1cnnc1-c1cccc(-c2ncc(-c3ccc(N)cc3)o2)n1 [Compound I-065] | ≤ 50
4 | CC(C)n1cnnc1-c1cccc(-c2ncc(-c3cccc(-c4ccccn4)c3)o2)n1 [Compound I-106] | 50 to 500
5 | CC(C)n1cnnc1-c1cccc(-c2ncc(-c3cccc(C4CCOCC4)c3)o2)n1 [Compound I-109] | ≤ 50
6 | CC(C)n1cnnc1-c1cccc(-c2ncc(-c3ccc(C4CC4)cc3)o2)n1 [Compound I-039] | 50 to 500
7 | CC(C)n1cnnc1-c1cccc(-c2ncc(-c3cccc(OC[C@@H]4CNCCO4)c3)o2)n1 [Compound I-079] | ≤ 50
8 | Cc1ccc(-c2cnc(-c3cccc(-c4nncn4[C@H](C)CO)n3)o2)c(C)c1 [Compound I-032] | ≤ 50
9 | CC(C)N1CCN(c2cccc(-c3cnc(-c4cccc(-c5nncn5C(C)C)n4)o3)c2)CC1 [Compound I-117] | ≤ 50
10 | CC(C)n1cnnc1-c1cccc(-c2ncc(-c3nccs3)o2)n1 [Compound I-141] | 50 to 500
11 | Cc1cc(F)c(-c2cnc(-c3cccc(-c4nncn4[C@H](C)CO)n3)o2)c(F)c1 [Compound I-052] | ≤ 50
12 | CC(C)n1cnnc1-c1cccc(-c2ncc(-c3cccc(OC[C@@H]4CN(C)CCO4)c3)o2)n1 [Compound I-080] | ≤ 50
13 | C[C@H](CO)n1cnnc1-c1cccc(-c2ncc(-c3ccccc3)o2)n1 [Compound I-018] | ≤ 50
14 | CC(C)n1cnnc1-c1cccc(-c2ncc(-c3cccc(C4=CCCC4)c3)o2)n1 [Compound I-134] | 50 to 500
15 | COC(=O)c1ccc(-c2cnc(-c3cccc(-c4nncn4C(C)C)n3)o2)cc1 [Compound I-093] | 50 to 500
16 | CC(C)n1cnnc1-c1cccc(-c2ncc(-c3cccc(N4CCC(N)C4)c3)o2)n1 (centres unmarked) [Compound I-127] | ≤ 50
17 | C[C@H](CO)n1cnnc1-c1cccc(-c2ncc(-c3cccc(N)c3)o2)n1 [Compound I-064] | ≤ 50
18 | CC(C)n1cnnc1-c1cccc(-c2ncc(-c3cccc(C4=CCCCCC4)c3)o2)n1 [Compound I-138] | 50 to 500
19 | CCc1ccccc1-c1cnc(-c2cccc(-c3nncn3C(C)C)n2)o1 [Compound I-038] | ≤ 50
20 | CC(CO)n1cnnc1-c1cccc(-c2ncc(-c3ccccc3)o2)n1 (centres unmarked) [Compound I-004, 2-(3-(6-(5-Phenyloxazol-2-yl)pyridin-2-yl)-4H-1,2,4-triazol-4-yl) propan-1-ol] | ≤ 50
21 | CC(C)n1cnnc1-c1cccc(-c2ncc(-c3cccc(C4=CCCCC4)c3)o2)n1 [Compound I-132] | 50 to 500
22 | CC(C)n1cnnc1-c1cccc(-c2ncc(-c3cccc(N)c3)o2)n1 [Compound I-063] | ≤ 50
23 | Cc1cccc(-c2cnc(-c3cccc(-c4nncn4C(C)C)n3)o2)c1 [Compound I-028] | 50 to 500
24 | CC(C)n1cnnc1-c1cccc(-c2ncc(-c3cccc(O)c3)o2)n1 [Compound I-073] | ≤ 50
25 | CC(C)n1cnnc1-c1cccc(-c2ncc(-c3cccc(N4CCC(O)C4)c3)o2)n1 (centres unmarked) [Compound I-005, 1-[3-(2-[6-[4-(Propan-2-yl)-4H-1,2,4-triazol-3-yl]pyridin-2-yl]-1,3-oxazol-5-yl)phenyl]pyrrolidin-3-ol] | ≤ 50
26 | CSc1ccc(-c2cnc(-c3cccc(-c4nncn4C(C)C)n3)o2)cc1 [Compound I-067] | ≤ 50
27 | CC(C)n1cnnc1-c1cccc(-c2ncc(-c3nc4ccccc4o3)o2)n1 [Compound I-142] | 50 to 500

Row | SMILES | EC50 [nM]
28 | CC(C)n1cnnc1-c1cccc(-c2ncc(-c3ccccc3C(F)(F)F)o2)n1 [Compound I-085] | 50 to 500
29 | CC(C)n1cnnc1-c1cccc(-c2ncc(-c3cccc(-n4cnc(C5CC5)c4)c3)o2)n1 [Compound I-144] | ≤ 50
30 | CC(C)n1cnnc1-c1cccc(-c2ncc(-c3cccc(C(N)=O)c3)o2)n1 [Compound I-009, 3-(2-[6-[4-(Propan-2-yl)-4H-1,2,4-triazol-3-yl]pyridin-2-yl]-1,3-oxazol-5-yl)benzamide] | 50 to 500
31 | CC(C)n1cnnc1-c1cccc(-c2ncc(-c3cccc(N4C5CCCC4CC5)c3)o2)n1 [Compound I-121] | 50 to 500
32 | CC(C)c1ccc(-c2cnc(-c3cccc(-c4nncn4C(C)C)n3)o2)cc1 [Compound I-035] | 50 to 500
33 | CC(C)n1cnnc1-c1cccc(-c2ncc(-c3cccc(C4CCCCC4)c3)o2)n1 [Compound I-131] | 500 to 5000
34 | CC(C)n1cnnc1-c1cccc(-c2ncc(-c3ccc(-c4ccccc4)cc3)o2)n1 [Compound I-105] | 50 to 500
35 | CCc1ccc(-c2cnc(-c3cccc(-c4nncn4C(C)C)n3)o2)cc1 [Compound I-036] | 50 to 500
36 | Cc1ccc(-c2cnc(-c3cccc(-c4nncn4[C@H](C)CO)n3)o2)c(F)c1 [Compound I-042] | ≤ 50
37 | Cc1ccccc1-c1cnc(-c2cccc(-c3nncn3[C@H](C)CO)n2)o1 [Compound I-025] | ≤ 50
38 | C[C@H](CO)n1cnnc1-c1cccc(-c2ncc(-c3c(F)cc(F)cc3F)o2)n1 [Compound I-053] | ≤ 50
39 | CC(C)n1cnnc1-c1cccc(-c2ncc(-c3cccc(C4CCCC4)c3)o2)n1 [Compound I-133] | 50 to 500
40 | Cc1ccc(-c2cnc(-c3cccc(-c4nncn4[C@H](C)CO)n3)o2)cc1 [Compound I-030] | ≤ 50
41 | CSc1ccccc1-c1cnc(-c2cccc(-c3nncn3[C@H](C)CO)n2)o1 [Compound I-096] | ≤ 50
42 | CC(C)n1cnnc1-c1cccc(-c2ncc(-c3ccccc3O)o2)n1 [Compound I-072] | ≤ 50
43 | COCCOc1cccc(-c2cnc(-c3cccc(-c4nncn4C(C)C)n3)o2)c1 [Compound I-078] | ≤ 50
44 | C[C@H](CO)n1cnnc1-c1cccc(-c2ncc(-c3ccc(S(C)(=O)=O)cc3)o2)n1 [Compound I-098] | ≤ 50
45 | C[C@H](CO)n1cnnc1-c1cccc(-c2ncc(-c3cccc(C4=CCCC4)c3)o2)n1 [Compound I-136] | ≤ 50
46 | CC(C)n1cnnc1-c1cccc(-c2ncc(-c3ccc(C(C)(C)C)cc3F)o2)n1 [Compound I-045] | 50 to 500
47 | CCCCCCOc1cccc(-c2cnc(-c3cccc(-c4nncn4[C@H](C)CO)n3)o2)c1 [Compound I-077] | ≤ 50
48 | CC(C)n1cnnc1-c1cccc(-c2ncc(-c3ccc(N4CCOCC4)cc3F)o2)n1 [Compound I-112] | 500 to 5000
49 | CC(C)n1cnnc1-c1cccc(-c2ncc(-c3ccc(OC(F)F)cc3)o2)n1 [Compound I-084] | ≤ 50
50 | CC(C)n1cnnc1-c1cccc(-c2ncc(-c3cccc(N4CCN(C)CC4)c3)o2)n1 [Compound I-115] | ≤ 50
51 | CC(C)n1cnnc1-c1cccc(-c2ncc(-c3cccc(-c4cccnc4)c3)o2)n1 [Compound I-107] | ≤ 50
52 | C[C@H](CO)n1cnnc1-c1cccc(-c2ncc(-c3cccc(N4CCNCC4)c3)o2)n1 [Compound I-114] | ≤ 50
53 | C[C@H](CO)n1cnnc1-c1cccc(-c2ncc(-c3cccc(S(N)(=O)=O)c3)o2)n1 [Compound I-099] | ≤ 50
